Reference: patent publication US20120101077A1, “AGGLOMERATE FORMULATIONS USEFUL IN DRY POWDER INHALERS” (Schering Corporation, priority 2009, published 2012)
Read-outs that look alike come from different tables or passages of the source.

Key:
[1] = Particle size of micronized materials by HELOS laser diffraction; assay type: physicochemical; settings: jet-milled micronized material
Experimental: Micronization of the drug and lactose were performed in-house using a jet-mill (Micron Master, The Jet Pulverizer Co., Inc, Moorestown, N.J.). […] Particle size measurements of the micronized materials were performed using a HELOS® (Sympatec Inc., Clausthal-Zellerfeld, Germany) laser diffraction system.

[2] = cited from earlier work
[3] = cited from earlier work; remark: listed apart in the source
[4] = Specific surface area of additional functional excipients; assay type: physicochemical

Row | Compound | average particle size (DV50) [1] [μm] | solubility ([2]; in acetone) | solubility ([2]; in chloroform) | solubility ([2]; in ethanol) | solubility ([2]; in isopropanol) | solubility ([2]; in methanol) | solubility ([2]; in tetrahydrofuran) | solubility ([2]; in water) | partition coefficient between octanol and water [3] | specific surface area [4] [m^2/g]
1 | C[C@@H]1C[C@H]2[C@@H]3CCC4=CC(=O)C=C[C@]4(C)[C@@]3(Cl)[C@@H](O)C[C@]2(C)[C@@]1(OC(=O)c1ccco1)C(=O)CCl [Mometasone furoate, 9,21-Dichloro-11(beta), 17-dihydroxy-16(alpha)-methylpregna-1,4-diene-3,20-dione 17-(2 furoate)] | 1.1 | soluble | soluble | slightly soluble | slightly soluble | slightly soluble | freely soluble | practically insoluble | greater than 5000 | –
2 | OC[C@H]1O[C@@H](O[C@H]2[C@H](O)[C@@H](O)[C@@H](O)O[C@@H]2CO)[C@H](O)[C@@H](O)[C@H]1O [micronized lactose, lactose anhydrous, NF] | 2.0 | – | – | – | – | – | – | – | – | –
3 | magnesium stearate | – | – | – | – | – | – | – | – | – | 8
